Data as given in patent US20170190705A1, “Compositions and Methods for Inhibiting BMP” (THE BRIGHAM AND WOMAN'S HOSPITAL, INC., priority 2014, published 2017).
Where two headings read alike, the source gives them in different places.

Legend:
caALK1 = target: T1, caALK1 (Homo sapiens, UniProt P37023, Q201D); assay: Luciferase reporter assay constitutively active ALK1; conditions: read-out: Cell Based Assay caALK1 IC50
T1 construct: expressed in transfected cells; host or cells: C2C12 BRE-Luc cells infected with adenovirus (MOI 100)
T1 sequence (P37023 22-503 Q201D): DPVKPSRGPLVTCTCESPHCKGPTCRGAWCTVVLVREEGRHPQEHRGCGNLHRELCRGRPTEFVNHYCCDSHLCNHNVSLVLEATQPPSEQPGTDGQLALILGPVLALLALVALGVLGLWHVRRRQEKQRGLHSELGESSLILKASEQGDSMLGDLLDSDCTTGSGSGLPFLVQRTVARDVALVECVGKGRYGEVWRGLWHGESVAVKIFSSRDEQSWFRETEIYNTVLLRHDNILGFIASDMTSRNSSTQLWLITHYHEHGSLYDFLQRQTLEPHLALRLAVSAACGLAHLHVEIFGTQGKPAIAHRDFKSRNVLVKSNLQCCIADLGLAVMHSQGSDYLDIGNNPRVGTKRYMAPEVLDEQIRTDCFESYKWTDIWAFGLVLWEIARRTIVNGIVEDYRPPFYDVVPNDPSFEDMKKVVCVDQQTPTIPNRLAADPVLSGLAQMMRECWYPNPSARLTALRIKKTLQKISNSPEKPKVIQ
Experimental: The cells were incubated for 1 h (37° C. and 10% CO2) and allowed to settle and attach. Compounds of interest or DMSO were diluted in DMEM and added at final compound concentrations of 1 nM to 10 μM. Cells were then incubated for 30 min. Adenovirus expressing constitutively active BMP and TGF-β type I receptors (Ad.caALK1-5), generously provided by Dr. Akiko Hata (University of to California at San Francisco), were added to achieve a multiplicity of infection (MOI) of 100. Plates were incubated overnight at 37° C. Cell viability was assayed with an MIT (3-(4,5-dimethylthiazol-2-yl)-2,5-diphenyl tetrazolium bromide) colorimetric assay (Promega) per the manufacturer's instructions. Media was discarded, and firefly luciferase activity was measured (Promega) according to manufacturer's protocol. Light output was measured using a Spectramax L luminometer (Molecular Devices) with an integration time of one second per well. Data was normalized to 100% of incremental BRE-Luc activity due to adenoviruses specifying caALK1, 2, or 3, or the incremental CAGA-Luc activity due to adenoviruses specifying caALK4 or 5.

BMP6 = assay: Ligand induced transcriptional activity assay BMP6 (BRE-Luc); format: cell-based
TNIK = TNIK (Homo sapiens, UniProt Q9UKE5); assay: Kinome profiling TNIK; format: biochemical; conditions: Table 4, read-out: Inhibitory Activity TNIK
TNIK, sequence (Q9UKE5 whole entry): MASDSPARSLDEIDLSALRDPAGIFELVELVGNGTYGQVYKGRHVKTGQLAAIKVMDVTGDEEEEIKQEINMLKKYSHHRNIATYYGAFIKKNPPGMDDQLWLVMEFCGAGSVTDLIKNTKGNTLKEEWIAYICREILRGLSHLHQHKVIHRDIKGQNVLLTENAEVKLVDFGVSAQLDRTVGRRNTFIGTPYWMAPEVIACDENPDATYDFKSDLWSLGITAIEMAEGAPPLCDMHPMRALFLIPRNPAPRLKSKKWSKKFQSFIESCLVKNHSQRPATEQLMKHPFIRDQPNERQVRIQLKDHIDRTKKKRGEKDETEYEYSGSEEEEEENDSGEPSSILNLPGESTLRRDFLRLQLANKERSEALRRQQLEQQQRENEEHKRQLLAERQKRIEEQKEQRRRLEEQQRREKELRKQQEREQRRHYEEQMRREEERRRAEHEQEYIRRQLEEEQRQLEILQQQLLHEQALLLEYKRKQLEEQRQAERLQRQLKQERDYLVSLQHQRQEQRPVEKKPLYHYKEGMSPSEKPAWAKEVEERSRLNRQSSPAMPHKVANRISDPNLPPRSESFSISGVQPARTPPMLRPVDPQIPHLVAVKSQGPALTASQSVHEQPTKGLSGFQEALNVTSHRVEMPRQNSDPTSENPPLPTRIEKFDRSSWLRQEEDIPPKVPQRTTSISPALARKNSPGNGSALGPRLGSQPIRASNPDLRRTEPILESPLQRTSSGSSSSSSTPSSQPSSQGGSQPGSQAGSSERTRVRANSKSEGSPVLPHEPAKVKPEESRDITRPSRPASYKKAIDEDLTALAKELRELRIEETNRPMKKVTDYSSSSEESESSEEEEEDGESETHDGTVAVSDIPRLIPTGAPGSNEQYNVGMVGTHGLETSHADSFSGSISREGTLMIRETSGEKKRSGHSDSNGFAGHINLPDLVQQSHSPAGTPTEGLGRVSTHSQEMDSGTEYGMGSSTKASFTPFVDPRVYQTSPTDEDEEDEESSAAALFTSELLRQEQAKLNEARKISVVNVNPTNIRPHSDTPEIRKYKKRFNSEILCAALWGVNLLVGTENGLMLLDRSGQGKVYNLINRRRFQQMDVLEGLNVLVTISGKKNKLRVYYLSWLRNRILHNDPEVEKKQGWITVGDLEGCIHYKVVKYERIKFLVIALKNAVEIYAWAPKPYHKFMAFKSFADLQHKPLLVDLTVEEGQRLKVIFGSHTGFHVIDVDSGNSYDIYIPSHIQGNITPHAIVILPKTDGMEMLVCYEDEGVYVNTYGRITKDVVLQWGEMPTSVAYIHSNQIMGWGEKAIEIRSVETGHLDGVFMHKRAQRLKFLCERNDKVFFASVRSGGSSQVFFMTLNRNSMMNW
Experimental: (§1) . The kinome-wide selectivity was determined following the methods previously reported by Mohedas et al., ACS Chem Biol 2013, 8, 1291-1302 and Sanvitale et al., PLoS One 2013, 8, e62721.

MAP4K5 = MAP4K5 (Homo sapiens, UniProt Q9Y4K4); assay: Kinome profiling MAP4K5; format: biochemical; conditions: Table 4, read-out: Inhibitory Activity MAP4K5
MAP4K5, sequence (Q9Y4K4 whole entry): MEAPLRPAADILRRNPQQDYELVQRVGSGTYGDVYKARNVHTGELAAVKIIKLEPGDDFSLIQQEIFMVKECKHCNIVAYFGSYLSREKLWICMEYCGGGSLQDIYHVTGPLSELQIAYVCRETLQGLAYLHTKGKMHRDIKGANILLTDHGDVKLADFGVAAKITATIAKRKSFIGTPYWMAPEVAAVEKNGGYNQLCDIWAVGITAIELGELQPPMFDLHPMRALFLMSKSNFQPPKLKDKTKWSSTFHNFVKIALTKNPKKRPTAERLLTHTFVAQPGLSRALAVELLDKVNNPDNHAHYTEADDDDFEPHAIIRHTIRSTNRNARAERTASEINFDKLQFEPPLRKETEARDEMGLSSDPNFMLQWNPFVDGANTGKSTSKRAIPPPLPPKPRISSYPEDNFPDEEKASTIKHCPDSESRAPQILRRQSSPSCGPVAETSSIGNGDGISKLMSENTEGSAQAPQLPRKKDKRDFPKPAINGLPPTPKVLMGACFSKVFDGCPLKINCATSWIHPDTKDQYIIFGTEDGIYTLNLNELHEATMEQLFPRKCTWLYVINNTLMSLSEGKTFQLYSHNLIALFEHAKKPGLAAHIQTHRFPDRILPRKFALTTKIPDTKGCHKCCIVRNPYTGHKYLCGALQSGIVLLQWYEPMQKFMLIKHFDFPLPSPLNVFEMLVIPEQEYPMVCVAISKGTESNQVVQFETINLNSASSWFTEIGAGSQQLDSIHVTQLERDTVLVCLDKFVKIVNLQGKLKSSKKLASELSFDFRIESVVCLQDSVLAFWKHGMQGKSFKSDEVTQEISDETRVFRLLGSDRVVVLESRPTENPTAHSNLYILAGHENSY
Experimental: as §1

ALK6 = ALK6 (Homo sapiens, UniProt O00238); assay: Kinome profiling ALK6; format: biochemical; conditions: Table 4, read-out: Inhibitory Activity ALK6
ALK6, sequence (O00238 14-502): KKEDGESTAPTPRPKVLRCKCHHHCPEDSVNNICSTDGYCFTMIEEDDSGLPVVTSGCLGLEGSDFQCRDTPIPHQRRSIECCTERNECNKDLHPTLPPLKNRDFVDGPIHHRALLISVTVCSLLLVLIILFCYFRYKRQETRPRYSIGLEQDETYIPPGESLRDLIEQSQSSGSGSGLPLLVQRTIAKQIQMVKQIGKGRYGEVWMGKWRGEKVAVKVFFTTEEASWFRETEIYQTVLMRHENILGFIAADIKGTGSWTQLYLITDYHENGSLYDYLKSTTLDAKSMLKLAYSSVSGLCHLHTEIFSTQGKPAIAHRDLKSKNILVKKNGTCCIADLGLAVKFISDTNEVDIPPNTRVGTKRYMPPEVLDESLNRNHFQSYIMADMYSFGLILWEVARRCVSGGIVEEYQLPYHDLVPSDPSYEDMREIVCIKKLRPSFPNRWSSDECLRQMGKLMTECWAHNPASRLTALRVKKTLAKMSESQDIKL
Experimental: as §1

COc1cc(-c2cc(-c3ccc(N4CCNCC4)cc3)cnc2N)cc(OC)c1OC [Compound 15, 5-(4-(piperazin-1-yl)phenyl)-3-(3,4,5-trimethoxyphenyl)pyridin-2-amine]
IC50 (caALK1): 24 nM

COc1cc(-c2cc(-c3ccc(N4CCNCC4)cc3)cnc2C)cc(OC)c1OC [Compound 10, 1-(4-(6-methyl-5-(3,4,5-trimethoxyphenyl)pyridin-3-yl)phenyl)piperazine]
IC50 (BMP6; Table 7, read-out: Ligand Induced BMP6 IC50): 67 nM
IC50 (BMP6; cell-based signaling inhibition, read-out: BMP6 IC50): 100 ± 1 nM
inhibition at 0.1 µM (TNIK; 100 nM): 71%
inhibition at 1 µM (TNIK; 1 μM): 98%
inhibition at 0.1 µM (MAP4K5; 100 nM): 43%
inhibition at 1 µM (MAP4K5; 1 μM): 86%
inhibition at 0.1 µM (ALK6; 100 nM): 11%
inhibition at 1 µM (ALK6; 1 μM): 60%
